Assay results taken from patent publication US6927039B2, “Enzymatic process” (Nanobiodesign Limited, priority 2000, dated 2005).
Where two headings read alike, the source gives them in different places.

What was measured:
[1] = target: T1, cytochrome P450 BM3 (Priestia megaterium, UniProt P14779); test: Substrate binding by spectral titration of the haem high spin band, purified enzyme (in vitro); design: expressed in transfected cells; host or cells: E. coli BL21(DE3) transformed with pT7Bm3Z; species or system Bacillus megaterium
T1 sequence (P14779 1-1049): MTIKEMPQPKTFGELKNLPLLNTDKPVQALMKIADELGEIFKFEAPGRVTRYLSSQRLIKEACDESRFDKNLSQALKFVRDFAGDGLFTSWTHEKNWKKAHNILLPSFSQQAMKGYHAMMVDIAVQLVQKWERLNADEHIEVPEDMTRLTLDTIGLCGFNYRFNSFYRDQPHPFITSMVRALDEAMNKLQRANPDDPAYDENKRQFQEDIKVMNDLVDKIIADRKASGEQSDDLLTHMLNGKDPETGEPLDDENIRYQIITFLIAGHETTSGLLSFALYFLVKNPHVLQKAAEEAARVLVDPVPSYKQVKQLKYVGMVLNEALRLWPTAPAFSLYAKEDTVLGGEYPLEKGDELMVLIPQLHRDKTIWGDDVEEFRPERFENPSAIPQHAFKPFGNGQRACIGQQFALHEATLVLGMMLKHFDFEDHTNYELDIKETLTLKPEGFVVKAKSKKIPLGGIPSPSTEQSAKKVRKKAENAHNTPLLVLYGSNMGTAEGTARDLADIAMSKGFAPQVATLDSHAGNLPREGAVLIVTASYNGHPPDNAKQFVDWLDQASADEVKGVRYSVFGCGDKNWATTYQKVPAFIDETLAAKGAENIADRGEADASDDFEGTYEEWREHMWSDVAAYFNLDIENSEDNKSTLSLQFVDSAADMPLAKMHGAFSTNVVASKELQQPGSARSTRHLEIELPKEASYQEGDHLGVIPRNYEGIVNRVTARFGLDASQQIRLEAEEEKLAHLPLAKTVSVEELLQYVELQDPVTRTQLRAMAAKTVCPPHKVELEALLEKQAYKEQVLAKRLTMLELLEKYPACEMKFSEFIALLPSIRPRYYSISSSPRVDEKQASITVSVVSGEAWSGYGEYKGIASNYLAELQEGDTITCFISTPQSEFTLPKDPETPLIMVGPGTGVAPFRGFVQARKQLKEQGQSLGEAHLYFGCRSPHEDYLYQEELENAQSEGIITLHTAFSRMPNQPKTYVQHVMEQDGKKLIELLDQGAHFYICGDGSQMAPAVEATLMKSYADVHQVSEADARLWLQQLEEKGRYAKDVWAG
Procedure: Substrate Binding and NADPH Consumption Assays. Substrate binding was followed in a Hewlett-Packard 8452A diode array spectrophotometer, equipped with a Hewlett-Packard peltier temperature controller 89090 by monitoring the increase in the high spin band of the haem at 390 nm, upon titration with different substrates. The dissociation constant Kd was calculated by fitting the obtained data to the equation [ES]=((ΔA390-ΔA421)max·[S]free)/(Kd+[S]free) where [ES]=(ΔA390-ΔA421)/(ΔA392-ΔA421)max·[P450 BM3] and [S]free=[S]added−[ES].
(§1) NADPH consumption was followed at 340 nm using a Δε340=6.22 mM^−1·cm^−1. Both assays were performed at 20° C. using P450 BM3 in 100 mM potassium phosphate buffer, pH 8.0. Reaction was initiated by addition to the substrate bound enzyme of NADPH to a final concentration of 130-150 μM. In the kinetics assay the rate constant kcat was calculated from the linear part of the decrease in A340 with time, which lasted at least for the first 4 sec. The enzyme concentration typically varied between 0.4 and 0.8 μM in the binding assay and between 8 and 25 nM in the catalytic assay. Substrate stock solutions were freshly prepared the day of the assay. Fatty acid stock solutions were in 50 mM potassium carbonate, SDS was easily dissolved in water, while TCE stock solutions were prepared in ethanol. If appropriate, stocks of candidate agents may be prepared in, for example, N,N-dimethylformamide just before the assay. […] The confidence interval for Kd given in the results section is the mean±the standard deviation of at least four measurements, as calculated using the software Kaleidagraph. Similarly kcat was calculated by fitting data points to the Michaelis-Menten equation. Each data point is the mean of at least four measurements.

[2] = target: T1, cytochrome P450 BM3; test: Substrate-dependent NADPH consumption assay at 340 nm, purified enzyme (in vitro); type: biochemical, Bacillus megaterium; design: expressed in transfected cells; host or cells: E. coli BL21(DE3) transformed with pT7Bm3Z; details: NADPH 130-150 μM, 20° C., pH 8.0
Procedure: as §1

[3] = target: T1, cytochrome P450 BM3; test: Alkali assay of NADP+ production in whole E.coli BL21(DE3) cells expressing P450 BM3 (in vivo assay); details: for R (Remark): substrate or no-interaction with P450 BM3; for Vmax: alkali assay; for Vmax / time at which the plateau of the A360 alkali product curve is reached: NADPH 1.5 mM; for time at which the plateau of the A360 alkali product curve is reached: substrate concentration about 0.8 mM; for substrate concentration above which the linear region of NADPH oxidation was found in the first 25 min: ~0-25 min after NADPH addition
Procedure: The hydroxylating activity of whole cells expressing cytochrome P450 BM3 was measured in terms of NADP^+ production. […] The assay has been adapted in a microtitre plate format as follows. A single colony from freshly transformed E.coli BL21(pT7Bm3Z) cells was inoculated into 170 μl LB/ampicillin (120 μg/ml) in a microtitre plate well. Cells were grown to an OD600˜0.8 before being induced with 1 mM IPTG. After incubation at 37° C. for 16 hours after induction, the cells were harvested and washed once with 100 mM potassium phosphate buffer pH 8.0. The cell pellet was stored in the −20° C. freezer before running the alkali test within the next few days. The cell pellet was then resuspended at 1:1.3 dilution in 100 mM potassium phosphate buffer pH 8.0. to give an OD600 of about 0.4, to which the substrate at the desired concentration was added (stock solutions of substrates as described for the binding and catalytic assays). A control consisting of cells in phosphate buffer added with the same amount of potassium carbonate solution or ethanol or N,N-dimethylformamide, without substrate was run for every sample. All samples were incubated at room temperature overnight. NADPH at 1.5 mM was then added to the samples and at 1 h after NADPH addition, an aliquot (typically 70 μl) was transferred in a new microtitre plate to which was added the same volume (typically 70 μl) of 0.3 M HCl, so that the final pH in the mixture is about 2. The aliquots were incubated for at least 10 min at room temperature, to ensure complete destruction of the remaining reduced NADPH. An aliquot (typically 70 μl) was then removed and transferred in a new microtitre plate with 280 μl of 9 M NaOH to yield a solution of a pH of about 14.8. The mixture was immediately mixed thoroughly and placed in the dark. The product was left to develop in dark for at least 2.5 h at room temperature, after which the absorbance at 360 nm or the emission at 455 nm (λex=360 nm) was measured.

[4] = test system: E.coli BL21(DE3) cells; test: Toxicity of substrate to the whole cells used in the assay; type: cell-based
Procedure: When the initial rate of AA, LA, and SDS oxidation was plotted against substrate concentration a Michaelis-Menten-type curve was obtained as shown in FIG. 6. […] The kinetic parameters determined following the substrate-dependent NADPH oxidation with time in the whole-cell assay are given in Table 1. For all the three substrates the extent of uncoupling of P450 BM3 from substrate hydroxylation was also determined in a whole-cell assay. This was essentially an adaptation of the hydrogen peroxide quantification method of HRP with ABTS described for the experiments carried out on purified enzyme.
The potential lethal effect that high concentrations of substrate may have on whole cells (as in the case of arachidonic acid at concentrations higher than 170 μM, FIG. 7A.) can be overcome without loss of sensitivity by successive small additions of substrate. The increase of the A360 signal with subsequent additions of SDS to whole cells expressing P450 BM3 is reported in FIG. 8, where it can be observed how the increase in the absorbance becomes limited by the NADPH concentration. At 1.5 h after NADPH addition, when SDS is supplied periodically to the cells an increase of about 45% in the NADP^+ production is seen, which should correspond to a ratio of sample A360 signal/blank signal of about 30. […]

[5] = target: T1, cytochrome P450 BM3; test: Hydrogen peroxide determination (uncoupling) by HRP/ABTS assay, purified enzyme; type: biochemical, Bacillus megaterium; design: expressed in transfected cells; host or cells: E. coli BL21(DE3) transformed with pT7Bm3Z; details: 150 μM NADPH
Procedure: Hydrogen Peroxide Determination. Uncoupled reactions were determined by measuring the production of hydrogen peroxide during substrate turnover using the horseradish peroxidase (HRP)/2′2-Azino-di(3-ethyl-benzathiazoline-6-sulphonic acid) (ABTS) assay as described by Childs and Bardsley (31). The extinction coefficient at 414 nm of the radical cation of ABTS was calculated to 32.95 mM^−1 cm^−1, in accordance with the published value. The assay mixture composition was essentially similar to that utilised during the substrate-dependent NADPH consumption assay (20-30 nM P450 BM3 in 100 mM potassium phosphate buffer pH 8.0, 150 μM NADPH, and at least 1.7 times higher substrate concentration relative to NADPH concentration). When all NADPH was consumed (as judged from the disappearance of the 340 nm peak) the hydrogen peroxide produced was measured. Uncoupling in whole cells was measured following essentially the same assay in whole cells in 100 mM potassium phosphate buffer pH 8.0 incubated with substrate and NADPH as in the alkali method.

[6] = 20° C., 100 mM potassium phosphate buffer pH 8.0, read-out: Kd

Compound | Kd ([1]; 20° C., 100 mM potassium phosphate buffer pH 8.0) | KM [2] | kcat [2] | R (Remark) [3] | toxicity to E.coli BL21(DE3) cells [4] | concentration above which the substrate has a lethal effect on whole cells ([4]; E.coli BL21(DE3) cells expressing P450 BM3) | Kd ([1]; printed as an order-of-magnitude range in M, read-out: Kd) [µM] | % H2O2 [5] [%] | Kd [1, 6] [µM] | ratio of sample A360 signal/blank signal ([3]; whole cells, SDS supplied periodically, 1.5 h after NADPH addition) | Vmax ([3]; whole cells) [nM NADP^+/min] | time at which the plateau of the A360 alkali product curve is reached ([3]; whole cells) [h] | substrate concentration above which the linear region of NADPH oxidation was found in the first 25 min ([3]; whole cells)
CCCCCC [n-hexane] | n.o. | n.o. | n.o. | N |  |  |  |  |  |  |  |  | 
CCCCC/C=C\C/C=C\C/C=C\C/C=C\CCCC(=O)O [AA, arachidonic acid] |  |  |  | S | relatively high toxicity | higher than 170 μM | ~0.1 | 0.11 |  |  |  |  | 
CCCCCCCCCCCCOS(=O)(=O)[O-].[Na+] [SDS, sodium dodecyl sulphate] |  |  |  | S |  |  |  | 0.63 | 11.5 ± 3.7 | about 30 | 18.19 ± 1.12 | 3.5 | higher than 300 μM
ClC(Cl)C(Cl)Cl [TCE, 1,1,2,2-tetrachloroethane] |  |  |  | S |  |  |  | 0 | 4010 ± 830 |  |  |  | 
CCCCCCCCCCCC(=O)O [LA, lauric acid] |  |  |  | S |  |  |  | 0.66 | 135 ± 38.2 |  | 10.26 ± 0.87 | 7 | higher than 200 μM
